Measurements taken from patent publication US11707539B2, “FAP-targeted radiopharmaceuticals and imaging agents, and uses related thereto” (Trustees of Tufts College, priority 2020, dated 2023).

Tested on: HEK-mFAP tumor-bearing mice
Experiment: 68Ga biodistribution, gamma counting after 50 min uptake
Format: in vivo, mouse
Procedure: Part 2 Biodistribution. The aim of the study is to assess ^68Ga-6555 biodistribution in HEK-mFAP tumor-bearing mice. HEK-mFAP tumor-bearing mice were used for the study (N=3). The mice were injected with ˜8 MBq (7.3-8.5 MBq range) of ^68Ga-6555 (prepared as per Example 20; IV through the tail vein using a catheter mounted with a 30 Ga needle). After 50 min uptake time (injection was performed under anesthasia using isoflurane inhalant, and stayed under anesthesia for 50 min), the mice were euthanized (with CO2) and tissues were collected (blood via cardiac puncture, heart, lungs, liver, spleen, pancreas, stomach, small intestine, kidney, muscle, femur, bone, skin, brain, tumor). After excision, the tissue samples were counted for gallium-68 radioactivity on a Cobra-II Auto-Gamma counter (Packard Instruments, Meriden, CTA), weighted, and data were expressed as % injected dose per gram (% ID/g).
Conducted as per Example 24 using ^68Ga-6952 prepared as per Example 22.
Biodistribution. The mice were injected with ˜8.6 MBq (7.6-10.0 MBq range). The majority of activity was located in the tumor (average % ID/g of 8.8). The kidney has the next largest amount of activity (average % ID/g of 2.18). […]

C[C@@H](NC(=O)c1ccc(CNC(=O)CN2CCN3CCN4CCN(CC2)CC(=O)[O][Ga]([O]C(=O)C3)[O]C(=O)C4)cc1)C(=O)N1CCC[C@H]1B(O)O [[^68Ga]-6555]
uptake in all other selected tissues (50 min uptake time, IV): low level of uptake comparable to the muscle
% ID/g Blood, AVERAGE (Blood, 50 min uptake after IV injection, average of N=3 mice): 0.57 % ID/g
% ID/g Blood, mouse #002 (Blood, 50 min uptake, individual mouse #002): 0.67 % ID/g
% ID/g Blood, mouse #005 (Blood, 50 min uptake, individual mouse #005): 0.38 % ID/g
% ID/g Blood, mouse #009 (Blood, 50 min uptake, individual mouse #009): 0.64 % ID/g
% ID/g Bone (femur), AVERAGE (Bone (femur), 50 min uptake after IV injection, average of N=3 mice): 0.33 % ID/g
% ID/g Bone (femur), mouse #002 (Bone (femur), 50 min uptake, individual mouse #002): 0.31 % ID/g
% ID/g Bone (femur), mouse #005 (Bone (femur), 50 min uptake, individual mouse #005): 0.50 % ID/g
% ID/g Bone (femur), mouse #009 (Bone (femur), 50 min uptake, individual mouse #009): 0.20 % ID/g
% ID/g Brain, AVERAGE (Brain, 50 min uptake after IV injection, average of N=3 mice): 0.07 % ID/g
% ID/g Brain, mouse #002 (Brain, 50 min uptake, individual mouse #002): 0.03 % ID/g
% ID/g Brain, mouse #005 (Brain, 50 min uptake, individual mouse #005): 0.07 % ID/g
% ID/g Brain, mouse #009 (Brain, 50 min uptake, individual mouse #009): 0.10 % ID/g
% ID/g Heart, AVERAGE (Heart, 50 min uptake after IV injection, average of N=3 mice): 0.34 % ID/g
% ID/g Heart, mouse #002 (Heart, 50 min uptake, individual mouse #002): 0.41 % ID/g
% ID/g Heart, mouse #005 (Heart, 50 min uptake, individual mouse #005): 0.17 % ID/g
% ID/g Heart, mouse #009 (Heart, 50 min uptake, individual mouse #009): 0.43 % ID/g
% ID/g Kidneys, AVERAGE (Kidneys, 50 min uptake after IV injection, average of N=3 mice): 1.37 % ID/g
% ID/g Kidneys, mouse #002 (Kidneys, 50 min uptake, individual mouse #002): 1.50 % ID/g
% ID/g Kidneys, mouse #005 (Kidneys, 50 min uptake, individual mouse #005): 1.03 % ID/g
% ID/g Kidneys, mouse #009 (Kidneys, 50 min uptake, individual mouse #009): 1.58 % ID/g
% ID/g Liver, AVERAGE (Liver, 50 min uptake after IV injection, average of N=3 mice): 1.01 % ID/g
% ID/g Liver, mouse #002 (Liver, 50 min uptake, individual mouse #002): 1.00 % ID/g
% ID/g Liver, mouse #005 (Liver, 50 min uptake, individual mouse #005): 0.79 % ID/g
% ID/g Liver, mouse #009 (Liver, 50 min uptake, individual mouse #009): 1.23 % ID/g
% ID/g Lungs, AVERAGE (Lungs, 50 min uptake after IV injection, average of N=3 mice): 0.56 % ID/g
% ID/g Lungs, mouse #002 (Lungs, 50 min uptake, individual mouse #002): 0.62 % ID/g
% ID/g Lungs, mouse #005 (Lungs, 50 min uptake, individual mouse #005): 0.39 % ID/g
% ID/g Lungs, mouse #009 (Lungs, 50 min uptake, individual mouse #009): 0.67 % ID/g
% ID/g Muscle, AVERAGE (Muscle, 50 min uptake after IV injection, average of N=3 mice): 0.74 % ID/g
% ID/g Muscle, mouse #002 (Muscle, 50 min uptake, individual mouse #002): 0.09 % ID/g
% ID/g Muscle, mouse #005 (Muscle, 50 min uptake, individual mouse #005): 0.21 % ID/g
% ID/g Muscle, mouse #009 (Muscle, 50 min uptake, individual mouse #009): 1.92 % ID/g
% ID/g Pancreas, AVERAGE (Pancreas, 50 min uptake after IV injection, average of N=3 mice): 0.92 % ID/g
% ID/g Pancreas, mouse #002 (Pancreas, 50 min uptake, individual mouse #002): 1.41 % ID/g
% ID/g Pancreas, mouse #005 (Pancreas, 50 min uptake, individual mouse #005): 0.93 % ID/g
% ID/g Pancreas, mouse #009 (Pancreas, 50 min uptake, individual mouse #009): 0.42 % ID/g
% ID/g Skin, AVERAGE (Skin, 50 min uptake after IV injection, average of N=3 mice): 0.28 % ID/g
% ID/g Skin, mouse #002 (Skin, 50 min uptake, individual mouse #002): 0.31 % ID/g
% ID/g Skin, mouse #005 (Skin, 50 min uptake, individual mouse #005): 0.27 % ID/g
% ID/g Skin, mouse #009 (Skin, 50 min uptake, individual mouse #009): 0.25 % ID/g
% ID/g Small intestine, AVERAGE (Small intestine, 50 min uptake after IV injection, average of N=3 mice): 0.31 % ID/g
% ID/g Small intestine, mouse #002 (Small intestine, 50 min uptake, individual mouse #002): 0.39 % ID/g
% ID/g Small intestine, mouse #005 (Small intestine, 50 min uptake, individual mouse #005): 0.19 % ID/g
% ID/g Small intestine, mouse #009 (Small intestine, 50 min uptake, individual mouse #009): 0.35 % ID/g
% ID/g Spleen, AVERAGE (Spleen, 50 min uptake after IV injection, average of N=3 mice): 0.77 % ID/g
% ID/g Spleen, mouse #002 (Spleen, 50 min uptake, individual mouse #002): 0.23 % ID/g
% ID/g Spleen, mouse #005 (Spleen, 50 min uptake, individual mouse #005): 0.74 % ID/g
% ID/g Spleen, mouse #009 (Spleen, 50 min uptake, individual mouse #009): 1.34 % ID/g
% ID/g Stomach, AVERAGE (Stomach, 50 min uptake after IV injection, average of N=3 mice): 0.20 % ID/g
% ID/g Stomach, mouse #002 (Stomach, 50 min uptake, individual mouse #002): 0.07 % ID/g
% ID/g Stomach, mouse #005 (Stomach, 50 min uptake, individual mouse #005): 0.21 % ID/g
% ID/g Stomach, mouse #009 (Stomach, 50 min uptake, individual mouse #009): 0.32 % ID/g
% ID/g Tumor, AVERAGE (Tumor (HEK-mFAP), 50 min uptake after IV injection, average of N=3 mice): 10.10 % ID/g
% ID/g Tumor, mouse #002 (Tumor (HEK-mFAP), 50 min uptake, individual mouse #002): 10.01 % ID/g
% ID/g Tumor, mouse #005 (Tumor (HEK-mFAP), 50 min uptake, individual mouse #005): 8.47 % ID/g
% ID/g Tumor, mouse #009 (Tumor (HEK-mFAP), 50 min uptake, individual mouse #009): 11.83 % ID/g
average % ID/g (kidney, 50 min uptake time, IV): 1.37 % ID/g
average % ID/g (tumor, 50 min uptake time, IV): 10.1 % ID/g
